Species: Rattus norvegicus
Experiment: Open TG-GATES - Regimen: Daily Repeat
Format: toxicity, organism-based, Sprague-Dawley
Parameters: regimen Daily Repeat, gender Male, age 6 weeks
Details: in vivo, po, 300 mg/kg, […], route gavage, dose level Middle; for KIDNEY_L / KIDNEY_R / KIDNEY_TOTAL: tissue Kidney; for LIVER: tissue Liver; for A/G / ALP / ALT / AST / BUN / CRE / Ca / Cl / DBIL / GLC / IP / K / LDH / Na / PL / RALB / TBIL / TC / TG / TP / gamma-GTP: tissue Plasma

Molecule `CC(=O)[C@@]1(O)CC[C@H]2[C@@H]3C=C(Cl)C4=CC(=O)CC[C@]4(C)[C@H]3CC[C@@]21C` [CHLORMADINONE] has a Lym (tissue Blood, time 28 day) of 82.8%, an MCH (tissue Blood, time 28 day) of 18.9 pg and an MCHC (tissue Blood, time 28 day) of 34.9%. The MCV (tissue Blood, time 28 day) was 54 fL, the Mono (tissue Blood, time 28 day) was 2.2% and the Neu (tissue Blood, time 28 day) was 12.8%. For the same molecule, the PT (tissue Blood, time 28 day) was 14.8 s, the Plat (tissue Blood, time 28 day) was 92.9 x10_4/uL and the RBC (tissue Blood, time 28 day) was 860 x10_4/ul. For the same molecule, the Ret (tissue Blood, time 28 day) was 2%, the WBC (tissue Blood, time 28 day) was 105.1 x10_2/uL and the KIDNEY_L (time 7 day) was 1 g. The KIDNEY_R (time 7 day) was 1 g, the KIDNEY_TOTAL (time 7 day) was 2.1 g and the KIDNEY_L (time 14 day) was 1.1 g. The KIDNEY_R (time 14 day) was 1.1 g, the KIDNEY_TOTAL (time 14 day) was 2.2 g and the KIDNEY_L (time 28 day) was 1.2 g. The KIDNEY_R (time 28 day) was 1.2 g, the KIDNEY_TOTAL (time 28 day) was 2.4 g and the LIVER (time 7 day) was 12.6 g. The LIVER (time 14 day) was 13.1 g, the LIVER (time 28 day) was 13.4 g and the A/G (time 7 day) was 1.1. For the same molecule, the ALP (time 7 day) was 1379.4 IU/L, the ALT (time 7 day) was 53 IU/L and the AST (time 7 day) was 70.8 IU/L. For the same molecule, the BUN (time 7 day) was 19.4 mg/dL, the CRE (time 7 day) was 0.2 mg/dL and the Ca (time 7 day) was 10.9 mg/dL. For the same molecule, the Cl (time 7 day) was 105.2 meq/L, the DBIL (time 7 day) was 0 mg/dL and the GLC (time 7 day) was 194.6 mg/dL. The IP (time 7 day) was 7.4 mg/dL, the K (time 7 day) was 4.6 meq/L and the LDH (time 7 day) was 198.8 IU/L. For the same molecule, the Na (time 7 day) was 139.4 meq/L, the PL (time 7 day) was 182.2 mg/dL and the RALB (time 7 day) was 3.2 g/dL. The TBIL (time 7 day) was 0 mg/dL, the TC (time 7 day) was 91.2 mg/dL and the TG (time 7 day) was 205.8 mg/dL. For the same molecule, the TP (time 7 day) was 6 g/dL, the gamma-GTP (time 7 day) was 1.8 IU/L and the A/G (time 14 day) was 1.1. The ALP (time 14 day) was 1447.6 IU/L, the ALT (time 14 day) was 44.2 IU/L and the AST (time 14 day) was 67 IU/L. It also gave a BUN (time 14 day) of 20 mg/dL, a CRE (time 14 day) of 0.2 mg/dL and a Ca (time 14 day) of 10.5 mg/dL. For the same molecule, the Cl (time 14 day) was 106.8 meq/L, the DBIL (time 14 day) was 0 mg/dL and the GLC (time 14 day) was 196.2 mg/dL. For the same molecule, the IP (time 14 day) was 6.9 mg/dL, the K (time 14 day) was 4.5 meq/L and the LDH (time 14 day) was 161.4 IU/L. The Na (time 14 day) was 141.4 meq/L, the PL (time 14 day) was 171.6 mg/dL and the RALB (time 14 day) was 3.1 g/dL. For the same molecule, the TBIL (time 14 day) was 0.002 mg/dL, the TC (time 14 day) was 83.8 mg/dL and the TG (time 14 day) was 173 mg/dL. For the same molecule, the TP (time 14 day) was 6 g/dL, the gamma-GTP (time 14 day) was 1.8 IU/L and the A/G (time 28 day) was 1.1. The ALP (time 28 day) was 1248.8 IU/L, the ALT (time 28 day) was 61.6 IU/L and the AST (time 28 day) was 76.6 IU/L. For the same molecule, the BUN (time 28 day) was 19.4 mg/dL, the CRE (time 28 day) was 0.2 mg/dL and the Ca (time 28 day) was 10.6 mg/dL. The Cl (time 28 day) was 105.6 meq/L, the DBIL (time 28 day) was 0 mg/dL and the GLC (time 28 day) was 186.8 mg/dL. For the same molecule, the IP (time 28 day) was 6 mg/dL, the K (time 28 day) was 4 meq/L and the LDH (time 28 day) was 156.2 IU/L. The Na (time 28 day) was 141.2 meq/L, the PL (time 28 day) was 171 mg/dL and the RALB (time 28 day) was 3.3 g/dL. The TBIL (time 28 day) was 0.012 mg/dL, the TC (time 28 day) was 89.2 mg/dL and the TG (time 28 day) was 153.6 mg/dL. It also gave a TP (time 28 day) of 6.3 g/dL and a gamma-GTP (time 28 day) of 2.4 IU/L.

Source: ChEMBL document CHEMBL3885861, “Open TG-GATES”
